Legend:
Type in all cases: functional
[1] = tested on: SK-MEL-2; test: Cytotoxicity against Homo sapiens (human) SK-MEL-2 cells assessed as growth inhibition at 10 uM after 48 hr by coulter counter analysis; conditions: SK-MEL-2, 48 h, read-out: GI
[2] = tested on: Malme-3M; test: Cytotoxicity against Homo sapiens (human) MALME-3M cells assessed as growth inhibition at 10 uM after 48 hr by coulter counter analysis; conditions: read-out: GI
[3] = tested on: SNB-75; test: Cytotoxicity against Homo sapiens (human) SNB75 cells assessed as growth inhibition at 10 uM after 48 hr by coulter counter analysis; conditions: SNB-75, 48 h, read-out: GI
[4] = tested on: SK-MEL-5; test: Cytotoxicity against Homo sapiens (human) SK-MEL-5 cells assessed as growth inhibition at 10 uM after 48 hr by coulter counter analysis; conditions: SK-MEL-5, 48 h, read-out: GI
[5] = tested on: PC-3; test: Cytotoxicity against Homo sapiens (human) PC3 cells assessed as growth inhibition at 10 uM after 48 hr by coulter counter analysis; conditions: PC-3, 48 h, read-out: GI
[6] = tested on: UO-31; test: Cytotoxicity against Homo sapiens (human) UO31 cells assessed as growth inhibition at 10 uM after 48 hr by coulter counter analysis; conditions: UO-31, 48 h, read-out: GI
[7] = tested on: CAKI-1; test: Cytotoxicity against Homo sapiens (human) Caki1 cells assessed as growth inhibition at 10 uM after 48 hr by coulter counter analysis; conditions: CAKI-1, 48 h, read-out: GI
[8] = tested on: ACHN; test: Cytotoxicity against Homo sapiens (human) ACHN cells assessed as growth inhibition at 10 uM after 48 hr by coulter counter analysis; conditions: read-out: GI
[9] = tested on: 786-0; test: Cytotoxicity against Homo sapiens (human) 786-0 cells assessed as growth inhibition at 10 uM after 48 hr by coulter counter analysis; conditions: 786-0, 48 h, read-out: GI
[10] = tested on: A498; test: Cytotoxicity against Homo sapiens (human) A498 cells assessed as growth inhibition at 10 uM after 48 hr by coulter counter analysis; conditions: A498, 48 h, read-out: GI
[11] = tested on: SK-OV-3; test: Cytotoxicity against Homo sapiens (human) SKOV3 cells assessed as growth inhibition at 10 uM after 48 hr by coulter counter analysis; conditions: SK-OV-3, 48 h, read-out: GI
[12] = Cytotoxicity against Homo sapiens (human) NCI-ADR-RES cells assessed as growth inhibition at 10 uM after 48 hr by coulter counter analysis; conditions: read-out: GI
[13] = tested on: HL-60(TB); test: Cytotoxicity against Homo sapiens (human) HL-60(TB) cells assessed as growth inhibition at 10 uM after 48 hr by coulter counter analysis; conditions: HL-60, 48 h, read-out: GI
[14] = tested on: CCRF-CEM; test: Cytotoxicity against Homo sapiens (human) CCRF-CEM cells assessed as growth inhibition at 10 uM after 48 hr by coulter counter analysis; conditions: read-out: GI
[15] = tested on: SF-268; test: Cytotoxicity against Homo sapiens (human) SF268 cells assessed as growth inhibition at 10 uM after 48 hr by coulter counter analysis; conditions: SF-268, 48 h, read-out: GI
[16] = tested on: KM12; test: Cytotoxicity against Homo sapiens (human) KM12 cells assessed as growth inhibition at 10 uM after 48 hr by coulter counter analysis; conditions: KM12, 48 h, read-out: GI
[17] = tested on: SW-620; test: Cytotoxicity against Homo sapiens (human) SW620 cells assessed as growth inhibition at 10 uM after 48 hr by coulter counter analysis; conditions: SW-620, 48 h, read-out: GI
[18] = tested on: HT-29; test: Cytotoxicity against Homo sapiens (human) HT-29 cells assessed as growth inhibition at 10 uM after 48 hr by coulter counter analysis; conditions: HT-29, 48 h, read-out: GI
[19] = tested on: HCT-15; test: Cytotoxicity against Homo sapiens (human) HCT15 cells assessed as growth inhibition at 10 uM after 48 hr by coulter counter analysis; conditions: HCT-15, 48 h, read-out: GI
[20] = tested on: NCI-H522; test: Cytotoxicity against Homo sapiens (human) NCI-H522 cells assessed as growth inhibition at 10 uM after 48 hr by coulter counter analysis; conditions: NCI-H522, 48 h, read-out: GI
[21] = tested on: NCI-H226; test: Cytotoxicity against Homo sapiens (human) NCI-H226 cells assessed as growth inhibition at 10 uM after 48 hr by coulter counter analysis; conditions: NCI-H226, 48 h, read-out: GI
[22] = tested on: EKVX; test: Cytotoxicity against Homo sapiens (human) EKVX cells assessed as growth inhibition at 10 uM after 48 hr by coulter counter analysis; conditions: read-out: GI
[23] = tested on: HOP-62; test: Cytotoxicity against Homo sapiens (human) HOP62 cells assessed as growth inhibition at 10 uM after 48 hr by coulter counter analysis; conditions: HOP-62, 48 h, read-out: GI
[24] = tested on: UACC-62; test: Cytotoxicity against Homo sapiens (human) UACC62 cells assessed as growth inhibition at 10 uM after 48 hr by coulter counter analysis; conditions: UACC-62, 48 h, read-out: GI

| SMILES | inhibition of growth at 10 µM [1] | inhibition of growth at 10 µM [2] | inhibition of growth at 10 µM [3] | inhibition of growth at 10 µM [4] | inhibition of growth at 10 µM [5] | inhibition of growth at 10 µM [6] | inhibition of growth at 10 µM [7] | inhibition of growth at 10 µM [8] | inhibition of growth at 10 µM [9] | inhibition of growth at 10 µM [10] | inhibition of growth at 10 µM [11] | inhibition of growth at 10 µM [12] | inhibition of growth at 10 µM [13] | inhibition of growth at 10 µM [14] | inhibition of growth at 10 µM [15] | inhibition of growth at 10 µM [16] | inhibition of growth at 10 µM [17] | inhibition of growth at 10 µM [18] | inhibition of growth at 10 µM [19] | inhibition of growth at 10 µM [20] | other results |
| --- | --- | --- | --- | --- | --- | --- | --- | --- | --- | --- | --- | --- | --- | --- | --- | --- | --- | --- | --- | --- | --- |
| O=c1[nH]nnc2c1C(c1ccc(Cl)cc1)C1=C(CCCC1)N2 (configuration not stated) | < 10% | < 10% | < 10% | 13% | 10.2% | 43.4% | 16.1% | < 10% | < 10% | 28.3% | < 10% | < 10% | < 10% | < 10% | < 10% | < 10% | < 10% | < 10% | < 10% | 13.5% | inhibition of growth at 10 µM [21]: 10.3%; inhibition of growth at 10 µM [22]: 10.9%; inhibition of growth at 10 µM [23]: < 10% |
| N#CCc1nc2c(c(=O)[nH]1)C(c1ccc(Cl)cc1)C1=C(CCCC1)N2 (configuration not stated) | 10% | < 10% | 20.4% | < 10% | < 10% | 37.7% | < 10% | 13.8% | < 10% | 13% | < 10% | < 10% | < 10% | < 10% | < 10% | < 10% | < 10% | < 10% | < 10% | 11.4% | inhibition of growth at 10 µM [21]: < 10%; inhibition of growth at 10 µM [22]: 13%; inhibition of growth at 10 µM [23]: 12.5% |
| CN(C)c1ccc(-c2nc3c(c(=O)[nH]2)C(c2ccc(Cl)cc2)C2=C(CCCC2)N3)cc1 (configuration not stated) | 10% | < 10% | 12% | < 10% | < 10% | 47.4% | < 10% | 13.1% | < 10% | < 10% | < 10% | < 10% | < 10% | < 10% | < 10% | < 10% | < 10% | < 10% | < 10% | 15.8% | inhibition of growth at 10 µM [21]: < 10%; inhibition of growth at 10 µM [22]: < 10%; inhibition of growth at 10 µM [23]: 12.8% |
| COc1ccc(-c2nc3c(c(=O)[nH]2)C(c2ccc(Cl)cc2)C2=C(CCCC2)N3)cc1OC (configuration not stated) | < 10% | < 10% | 11.2% | 13% | 12.5% | 41.7% | < 10% | < 10% | < 10% | < 10% | < 10% | < 10% | < 10% | < 10% | < 10% | < 10% | < 10% | < 10% | < 10% | 10.1% | inhibition of growth at 10 µM [21]: 11%; inhibition of growth at 10 µM [22]: < 10%; inhibition of growth at 10 µM [23]: 10.2% |
| COc1ccc(C2C3=C(CCCC3)Nc3nc(-c4ccc(N(C)C)cc4)[nH]c(=O)c32)cc1OC (configuration not stated) | < 10% | < 10% | < 10% | < 10% | 11.4% | 29.4% | 10.5% | < 10% | < 10% | 21.7% | < 10% | < 10% | < 10% | < 10% | < 10% | < 10% | < 10% | < 10% | < 10% | 14.4% | inhibition of growth at 10 µM [21]: 13.6%; inhibition of growth at 10 µM [22]: < 10%; inhibition of growth at 10 µM [23]: < 10% |
| Oc1ccc(-c2nc3c4c(ncn3n2)NC2=C(CCCC2)C4c2ccc(Cl)cc2)cc1 (configuration not stated) | < 10% | 13% | 20.5% | < 10% | 10.4% | 29% | 24.6% | < 10% | < 10% | 25.1% | < 10% | < 10% | 13.5% | 13.2% | < 10% | < 10% | < 10% | < 10% | < 10% | < 10% | inhibition of growth at 10 µM [24]: 17.4%; inhibition of growth at 10 µM [21]: < 10%; inhibition of growth at 10 µM [22]: < 10%; inhibition of growth at 10 µM [23]: 16.6% |
| COc1ccc(C2C3=C(CCCC3)Nc3ncn4nc(-c5ccccc5)nc4c32)cc1OC (configuration not stated) | < 10% | < 10% | < 10% | < 10% | 19.8% | 38.7% | 13.1% | 20% | < 10% | 53.6% | < 10% | < 10% | < 10% | < 10% | < 10% | < 10% | < 10% | < 10% | 13.1% | 31.4% | inhibition of growth at 10 µM [24]: < 10%; inhibition of growth at 10 µM [21]: 19.6%; inhibition of growth at 10 µM [22]: 11%; inhibition of growth at 10 µM [23]: < 10% |
| COc1ccc(C2C3=C(CCCC3)Nc3ncn4nc(-c5ccc(O)cc5)nc4c32)cc1OC (configuration not stated) | < 10% | < 10% | 19.1% | 23.2% | < 10% | 29.3% | < 10% | < 10% | < 10% | < 10% | < 10% | < 10% | < 10% | < 10% | < 10% | < 10% | < 10% | < 10% | < 10% | 16.4% | inhibition of growth at 10 µM [24]: < 10%; inhibition of growth at 10 µM [21]: 15.3%; inhibition of growth at 10 µM [22]: < 10%; inhibition of growth at 10 µM [23]: < 10% |

Source: ChEMBL document CHEMBL3045802, “Synthesis and in vitro antitumor activity of new quinoline, pyrimido[4,5-b]quinoline, [1,2,3]triazino[4,5-b]quinoline, and [1,2,4]triazolo[2,3:3,4]pyrimido[6,5-b]quinoline analogs” (2013)
